We go through 2 compounds from US20210360915A1, “CRYOPRESERVING COMPOSITIONS” (UNIVERSITY OF WARWICK, priority 2018, published 2021).

One series deals with β-Gal (Escherichia coli, UniProt P00722). Conditions: 1 hour incubation without freeze/thaw. How it is done: β-Gal activity was determined by a colorimetric assay involving the use of ONPG. Briefly aliquots of 30 μL of 4 mg·mL-1 ONPG were added to wells of a 96 well plate containing 50 μL of 20 μg·mL^−1 B-Gal solution. This was then incubated at room temperature for 5 minutes and quenched by addition of 50 μL of 1M Na2CO3 solution. Absorbance was measured at 420 nm.
Since under standard laboratory conditions, proteins are normally stored at −80° C. through long periods, we decided to test the levels of protein activity after long term ultra-low temperature conditions.

In a further series the test system is β-galactosidase (β-Gal). Kind of series: β-Gal activity recovery after frozen storage (ONPG assay). Conditions: frozen at −20° C. for 3 days, thawed at 20° C.; PEG, PVP, Trehalose, HES 100 mg·mL^−1, PVA 1 mg·mL^−1. The format is biochemical, bacterial. The method, then: Samples were made in triplicate at the appropriate concentrations and frozen in 1.5 mL tubes by directly placing in a freezer either at −20° C. or −80° C. The samples were then held at this temperature for the indicated time period and then thawed at 20° C.
Absorbance was measured at 420 nm. All other methods are in the supporting information.
Absorbance was measured at 420 nm.
Activity was tested after thawing at 20° C. (FIG. 6B).

The next series concerns B. subtilis. Kind of series: B. subtilis colony recovery after 7 freeze/thaw cycles. The format is cell-based, Bacillus subtilis. The text has this:
(§1) Bacillus subtilis was chosen as a Gram positive strain and Mycobacterium smegmatis as a Mycobacteria (distinct cell wall compared to other Gram positives) for further analysis. Using the same conditions as for E. coli, the cells were exposed to 7 freeze/thaw cycles and recovered colonies counted, Table 1 and FIG. 4. To enable comparison of the data and to account for the different growth rates of each bacterial strain, the recovered colonies were also normalised to the highest recovery.

The test system of series [1] is E. coli. The series is described as follows: E. coli colony recovery after 7 freeze/thaw cycles. The format is cell-based, Escherichia coli. Also on record: Mean colonies recovered, E. coli, Total: dose or concentration left out as unconfirmed. The method, then: E. coli was added to different cryoprotective formulations and then exposed to 7 freeze/thaw cycles from liquid nitrogen (−196° C.) to room temperature (20° C.) and the number of colony forming units determined by growth on agar plates for 16 hours was recorded (see FIG. 2A). This was chosen to mimic laboratory conditions where stocks are often frozen and thawed during use.
In some down-stream applications, […].
as §1

Series [2] has as its system E. coli. How it is done:
Each component (at the useful cryopreservation concentration) was incubated with E. coli overnight at 4° C. and subsequently the number of colony forming units determined, FIG. 2B.

Series [3] deals with E. coli. Kind of series: Post-thaw growth profile of E. coli by OD600. The format is cell-based, Escherichia coli. Conditions: 7 freeze/thaw cycles in liquid nitrogen, then inoculated into LB media. The text has this: This macromolecular cryoprotection solution using ice-inhibiting polymers is clearly suitable for bacteria storage but there are many parameters which can be varied in this system including the molecular weight of the polymers. To enable a large number of conditions to be screened, the post-thaw growth rate of E. coli was also followed by OD600 (turbidity) measurements, which enable higher-throughput measurements. E. coli were frozen with the indicated formulations, and post-thaw inoculated into LB media and their growth monitored.
The improvement was most significant in the case of larger PEGs.

For another series, the system named is M. smegmatis. The series is described as follows: M. smegmatis colony recovery after 7 freeze/thaw cycles. The format is cell-based, Mycobacterium smegmatis.
Excerpt: as §1

Where [4] appears, read: concentrations as in table footnote, ± SD.
[5] abbreviates: normalised to the highest recovery.

Each structure is given as a SMILES string.

Sequence of β-Gal (P00722 2-1024): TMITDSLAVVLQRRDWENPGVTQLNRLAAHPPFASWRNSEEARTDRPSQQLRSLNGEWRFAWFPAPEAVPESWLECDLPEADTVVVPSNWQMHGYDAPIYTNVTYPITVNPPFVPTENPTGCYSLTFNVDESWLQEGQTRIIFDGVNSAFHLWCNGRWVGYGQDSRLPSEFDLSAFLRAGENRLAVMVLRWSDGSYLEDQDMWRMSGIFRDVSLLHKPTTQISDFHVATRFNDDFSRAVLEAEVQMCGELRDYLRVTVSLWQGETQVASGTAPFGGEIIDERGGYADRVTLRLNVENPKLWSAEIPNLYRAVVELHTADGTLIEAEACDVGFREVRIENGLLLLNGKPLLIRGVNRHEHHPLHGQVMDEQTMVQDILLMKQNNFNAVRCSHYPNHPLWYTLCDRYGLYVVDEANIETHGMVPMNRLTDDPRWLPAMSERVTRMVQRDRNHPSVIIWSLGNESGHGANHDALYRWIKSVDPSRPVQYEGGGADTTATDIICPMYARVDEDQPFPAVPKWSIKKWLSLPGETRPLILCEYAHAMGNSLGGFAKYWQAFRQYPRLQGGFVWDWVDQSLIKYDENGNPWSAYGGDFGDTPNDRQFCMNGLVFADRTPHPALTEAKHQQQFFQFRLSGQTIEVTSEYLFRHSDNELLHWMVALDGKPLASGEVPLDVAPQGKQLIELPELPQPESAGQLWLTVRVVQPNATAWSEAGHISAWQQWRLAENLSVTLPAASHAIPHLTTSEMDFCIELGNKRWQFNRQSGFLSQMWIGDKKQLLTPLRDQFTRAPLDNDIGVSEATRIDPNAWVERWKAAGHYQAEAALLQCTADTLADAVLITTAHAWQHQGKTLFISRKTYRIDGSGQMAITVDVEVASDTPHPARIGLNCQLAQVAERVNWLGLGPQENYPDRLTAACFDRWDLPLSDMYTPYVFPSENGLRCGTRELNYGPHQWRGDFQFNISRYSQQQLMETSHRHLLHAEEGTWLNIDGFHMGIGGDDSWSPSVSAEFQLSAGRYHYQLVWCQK

For `OC[C@H]1O[C@H](O[C@H]2O[C@H](CO)[C@@H](O)[C@H](O)[C@H]2O)[C@H](O)[C@@H](O)[C@@H]1O` [trehalose], at β-Gal, the “β-Gal function after incubation with cryoprotectant” value is given as “some negative effects on protein function”. In addition, the “protection of β-Gal activity” value in the series on β-galactosidase (β-Gal) was “protected β-Gal activity”.
Consider `OCC(O)CO` [25% Glycerol, glycerol], for which the “Mean colonies recovered, B. subtilis, Total” value in the series with B. subtilis (setting [4]) is listed as 93 ± 18.9. The “Mean colonies recovered, B. subtilis, Normalised” value in the series with B. subtilis (setting [5]) was 35%. In addition, the “recovered colonies (colony forming units)” value in the series on E. coli [1] (7 freeze (−196° C.)/thaw (20° C.) cycles, growth on agar plates for 16 hours, PEG/PVA 100 + 1 mg·mL^−1) came to 15. Also, the “Mean colonies recovered, E. coli, Normalised” value with E. coli [1] (7 freeze/thaw cycles, normalised to the highest recovery) was 22%. In the series with E. coli [1] (7 freeze/thaw cycles, ± SD), the “Mean colonies recovered, E. coli, Total” value was found to be 15 ± 2.8. Besides, the “recovered colonies after overnight incubation with cryoprotectant (toxicity)” value with E. coli [2] is “significant reduction in recovered colonies”. Moreover, in the series with E. coli [3], the “post-thaw growth rate (OD600)” value is reported as “essentially identical growth rates”. The “Mean colonies recovered, M. smegmatis, Total” value in the series with M. smegmatis (setting [4]) came to 30 ± 6.0. Besides, the “Mean colonies recovered, M. smegmatis, Normalised” value with M. smegmatis (setting [5]) is listed as 88%.
